{"source": "patent US11142526B2", "about": "“Spirocycle compounds and methods of making and using same” (H. Lundbeck A/S, priority 2017, dated 2021)", "key": {"[1]": {"target": "MAGL (Homo sapiens (Human), UniProt Q99685)", "sequence (Q99685 whole entry)": "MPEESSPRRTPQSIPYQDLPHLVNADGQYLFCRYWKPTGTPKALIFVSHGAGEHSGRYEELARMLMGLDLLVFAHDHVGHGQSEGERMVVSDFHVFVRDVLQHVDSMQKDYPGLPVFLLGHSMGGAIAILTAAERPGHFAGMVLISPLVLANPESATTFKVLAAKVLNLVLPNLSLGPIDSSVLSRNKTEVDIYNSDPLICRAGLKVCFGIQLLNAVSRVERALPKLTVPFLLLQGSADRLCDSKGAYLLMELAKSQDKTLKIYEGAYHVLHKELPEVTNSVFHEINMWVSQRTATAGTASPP", "assay": "In vitro competitive activity-based protein profiling (gel-based, FP-Rh or HT-01 probe)", "format": "biochemical", "conditions": "for IC50: read-out: MAGL Human PC3 (IC50)", "protocol": "In Vitro Competitive Activity-Based Protein Profiling.\nProteomes (human prefrontal cortex or cell membrane fractions) (50 μL, 1.0 mg/mL total protein concentration) were preincubated with varying concentrations of inhibitors at 37° C. After 30 min, FP-Rh or HT-01 (1.0 μL, 50 μM in DMSO) was added and the mixture was incubated for another 30 min at room temperature. Reactions were quenched with SDS loading buffer (15 μL—4×) and run on SDS-PAGE."}, "[2]": {"target": "T1, MAGL (Mus musculus (Mouse), UniProt O35678)", "T1 sequence (O35678 whole entry)": "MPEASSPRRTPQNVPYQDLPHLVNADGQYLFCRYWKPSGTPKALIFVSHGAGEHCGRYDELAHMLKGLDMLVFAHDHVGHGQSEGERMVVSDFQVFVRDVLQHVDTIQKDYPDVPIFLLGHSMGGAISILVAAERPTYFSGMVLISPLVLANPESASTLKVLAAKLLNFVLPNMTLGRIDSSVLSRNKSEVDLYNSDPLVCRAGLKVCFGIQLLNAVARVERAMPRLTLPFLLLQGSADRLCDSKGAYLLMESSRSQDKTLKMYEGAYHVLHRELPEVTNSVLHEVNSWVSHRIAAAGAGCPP", "assay": "Mouse brain proteomes from inhibitor treated mice (oral gavage, brain MAGL activity 4 h after administration)", "format": "in vivo", "conditions": "5 mg/kg oral gavage", "protocol": "Preparation of Mouse Brain Proteomes from Inhibitor Treated Mice.\nInhibitors were administered to wild-type C57B1/6J by oral gavage in a vehicle of polyethylene glycol."}, "[3]": {"target": "T1, MAGL", "assay": "In vitro competitive activity-based protein profiling, mouse brain proteome", "format": "biochemical", "conditions": "for inhibition at 1 µM: mouse; for IC50: mouse brain"}, "[4]": {"conditions": "human PC3, read-out: MAGL % Inhibition at 1 μM (human PC3)"}}, "note": "Where two headings read alike, the source gives them in different places."}
{"molecule": "O=C(OC(C(F)(F)F)C(F)(F)F)N1CCC2(CCCN2Cc2cnc3ccc(Cl)cn23)CC1", "note": "[Example 229, 1,1,1,3,3,3-Hexafluoropropan-2-yl 1-((6-chloroimidazo[1,2-a]pyridin-3-yl)methyl)-1,8-diazaspiro[4.5]decane-8-carboxylate]", "values": [{"measurement": "IC50", "setting": "[1]; human PC3", "result": "< 100", "unit": "nM"}, {"measurement": "MAGL % Inhibition at 5 mg/kg (Mouse)", "setting": "[2]", "result": "### (% inhibition is greater than or equal to 75%)"}, {"measurement": "inhibition at 1 µM", "setting": "[3]", "result": "> 75", "unit": "%"}, {"measurement": "IC50", "setting": "[3]", "result": "< 100", "unit": "nM"}]}
{"molecule": "CC(C)N1CCn2cc(C(=O)NC3(C)CCN(C(=O)OC(C(F)(F)F)C(F)(F)F)CC3)nc2C1", "note": "[Example 182, 1,1,1,3,3,3-Hexafluoropropan-2-yl 4-(7-isopropyl-5,6,7,8-tetrahydroimidazo[1,2-a]pyrazine-2-carboxamido)-4-methylpiperidine-1-carboxylate]", "values": [{"measurement": "inhibition at 1 µM", "setting": "[1]; [4]", "result": "> 75", "unit": "%"}, {"measurement": "inhibition at 1 µM", "setting": "[1]; human PFC (prefrontal cortex), read-out: MAGL % Inhibition at 1 μM (human PFC)", "result": "> 75", "unit": "%"}, {"measurement": "IC50", "setting": "[1]; human PC3", "result": "< 100", "unit": "nM"}, {"measurement": "MAGL % Inhibition at 5 mg/kg (Mouse)", "setting": "[2]", "result": "### (% inhibition is greater than or equal to 75%)"}]}
{"molecule": "O=C(OC(C(F)(F)F)C(F)(F)F)N1CCC2(CCCN2C(=O)c2cc3cccc(Cl)c3s2)CC1", "note": "[Example 105, 1,1,1,3,3,3-Hexafluoropropan-2-yl 1-(7-chlorobenzo[b]thiophene-2-carbonyl)-1,8-diazaspiro[4.5] decane-8-carboxylate]", "values": [{"measurement": "MAGL % Inhibition at 5 mg/kg (Mouse)", "setting": "[2]", "result": "### (% inhibition is greater than or equal to 75%)"}, {"measurement": "inhibition at 1 µM", "setting": "[3]", "result": "> 75", "unit": "%"}, {"measurement": "IC50", "setting": "[3]", "result": "< 100", "unit": "nM"}]}
{"molecule": "Cc1ccc2sc(CN3CCCC34CCN(C(=O)OC(C(F)(F)F)C(F)(F)F)CC4)cc2c1", "note": "[Example 61, 1,1,1,3,3.3-Hexafluoropropan-2-yl 1-((5-methylbenzo[b]thiophen-2-yl)methyl)-1,8-diazaspiro[4.5] decane-8-carboxylate]", "values": [{"measurement": "MAGL % Inhibition at 5 mg/kg (Mouse)", "setting": "[2]", "result": "### (% inhibition is greater than or equal to 75%)"}, {"measurement": "inhibition at 1 µM", "setting": "[3]", "result": "> 75", "unit": "%"}, {"measurement": "IC50", "setting": "[3]", "result": "< 100", "unit": "nM"}]}
{"molecule": "O=C(OC(C(F)(F)F)C(F)(F)F)N1CCC2(CCCN2C(=O)c2cc3cc(Cl)ccc3[nH]2)CC1", "note": "[Example 93, 1,1,1,3,3.3-Hexafluoropropan-2-yl 1-(5-chloro-1H-indole-2-carbonyl)-1,8-diazaspiro[4.5] decane-8-carboxylate]", "values": [{"measurement": "MAGL % Inhibition at 5 mg/kg (Mouse)", "setting": "[2]", "result": "### (% inhibition is greater than or equal to 75%)"}, {"measurement": "inhibition at 1 µM", "setting": "[3]", "result": "> 75", "unit": "%"}, {"measurement": "IC50", "setting": "[3]", "result": "< 100", "unit": "nM"}]}
{"molecule": "O=C(OC(C(F)(F)F)C(F)(F)F)N1CCC2(CCCN2C(=O)c2cc3cc(C(F)(F)F)ccc3s2)CC1", "note": "[Example 102, 1,1,1,3,3,3-Hexafluoropropan-2-yl 1-(5-(trifluoromethyl)benzo[b]thiophene-2-carbonyl)-1,8-diazaspiro[4.5] decane-8-carboxylate]", "values": [{"measurement": "MAGL % Inhibition at 5 mg/kg (Mouse)", "setting": "[2]", "result": "### (% inhibition is greater than or equal to 75%)"}, {"measurement": "inhibition at 1 µM", "setting": "[3]", "result": "> 75", "unit": "%"}, {"measurement": "IC50", "setting": "[3]", "result": "< 100", "unit": "nM"}]}
{"molecule": "O=C(OC(C(F)(F)F)C(F)(F)F)N1CCC2(CCCN2Cc2cc3c(Cl)cc(Cl)cc3[nH]2)CC1", "note": "[Example 11, 1,1,1,3,3,3-Hexafluoropropan-2-yl 1-((4,6-dichloro-1H-indol-2-yl)methyl)-1,8-diazaspiro[4.5]decane-8-carboxylate]", "values": [{"measurement": "MAGL % Inhibition at 5 mg/kg (Mouse)", "setting": "[2]", "result": "### (% inhibition is greater than or equal to 75%)"}, {"measurement": "inhibition at 1 µM", "setting": "[3]", "result": "> 75", "unit": "%"}, {"measurement": "IC50", "setting": "[3]", "result": "< 100", "unit": "nM"}]}
{"molecule": "O=C(OC(C(F)(F)F)C(F)(F)F)N1CCC2(CCCN2Cc2ccc3ccccc3n2)CC1", "note": "[Example 54, 1,1,1,3,3,3-Hexafluoropropan-2-yl 1-(quinolin-2-ylmethyl)-1,8-diazaspiro [4.5]decane-8-carboxylate]", "values": [{"measurement": "MAGL % Inhibition at 5 mg/kg (Mouse)", "setting": "[2]", "result": "### (% inhibition is greater than or equal to 75%)"}, {"measurement": "inhibition at 1 µM", "setting": "[3]", "result": "> 75", "unit": "%"}, {"measurement": "IC50", "setting": "[3]", "result": "< 100", "unit": "nM"}]}
{"molecule": "O=C(OC(C(F)(F)F)C(F)(F)F)N1CCC2(CCCN2Cc2csc(-c3ccccc3)n2)CC1", "note": "[Example 227, 1,1,1,3,3,3-Hexafluoropropan-2-yl 1-((2-phenylthiazol-4-yl)methyl)-1,8-diazaspiro[4.5]decane-8-carboxylate]", "values": [{"measurement": "MAGL % Inhibition at 5 mg/kg (Mouse)", "setting": "[2]", "result": "### (% inhibition is greater than or equal to 75%)"}, {"measurement": "inhibition at 1 µM", "setting": "[3]", "result": "> 75", "unit": "%"}, {"measurement": "IC50", "setting": "[3]", "result": "< 100", "unit": "nM"}]}
{"molecule": "CC(C)n1cc(CN2CCCC23CCN(C(=O)OC(C(F)(F)F)C(F)(F)F)CC3)c(-c2ccccc2Cl)n1", "note": "[Example 222, 1,1,1,3,3,3-Hexafluoropropan-2-yl 1-((3-(2-chlorophenyl)-1-isopropyl-1H-pyrazol-4-yl)methyl)-1,8-diazaspiro[4.5]decane-8-carboxylate]", "values": [{"measurement": "MAGL % Inhibition at 5 mg/kg (Mouse)", "setting": "[2]", "result": "### (% inhibition is greater than or equal to 75%)"}, {"measurement": "inhibition at 1 µM", "setting": "[3]", "result": "> 75", "unit": "%"}, {"measurement": "IC50", "setting": "[3]", "result": "< 100", "unit": "nM"}]}
{"molecule": "CC(C)n1cc(CN2CCC3(CCN(C(=O)OC(C(F)(F)F)C(F)(F)F)CC3)C2)c(-c2ccccc2)n1", "note": "[Example 6, 1,1,1,3,3,3-Hexafluoropropan-2-yl 2-((1-isopropyl-3-phenyl-1H-pyrazol-4-yl)methyl)-2,8-diazaspiro[4.5]decane-8-carboxylate]", "values": [{"measurement": "MAGL % Inhibition at 5 mg/kg (Mouse)", "setting": "[2]", "result": "## (% inhibition is less than 75% and greater than 25%)"}, {"measurement": "inhibition at 1 µM", "setting": "[3]", "result": "> 75", "unit": "%"}, {"measurement": "IC50", "setting": "[3]", "result": "< 100", "unit": "nM"}]}
{"molecule": "CC1(NC(=O)c2cn3c(n2)CN(S(C)(=O)=O)CC3)CCN(C(=O)OC(C(F)(F)F)C(F)(F)F)CC1", "note": "[Example 27, 1,1,1,3,3,3-hexafluoropropan-2-yl 4-methyl-4-(7-(methylsulfonyl)-5,6,7,8-tetrahydroimidazo[1,2-a]pyrazine-2-carboxamido)piperidine-1-carboxylate]", "values": [{"measurement": "inhibition at 1 µM", "setting": "[1]; [4]", "result": "> 75", "unit": "%"}, {"measurement": "IC50", "setting": "[1]; human PC3", "result": "< 100", "unit": "nM"}, {"measurement": "MAGL % Inhibition at 5 mg/kg (Mouse)", "setting": "[2]", "result": "# (% inhibition less or equal to 25%)"}]}
{"molecule": "O=C(OC(C(F)(F)F)C(F)(F)F)N1CCC2(CCCN2Cc2cc3ccccc3s2)CC1", "note": "[Example 223, 1,1,1,3,3,3-Hexafluoropropan-2-yl 1-(benzo[b]thiophen-2-ylmethyl)-1,8-diazaspiro[4.5] decane-8-carboxylate]", "values": [{"measurement": "MAGL % Inhibition at 5 mg/kg (Mouse)", "setting": "[2]", "result": "### (% inhibition is greater than or equal to 75%)"}, {"measurement": "inhibition at 1 µM", "setting": "[3]", "result": "> 75", "unit": "%"}, {"measurement": "IC50", "setting": "[3]", "result": "< 100", "unit": "nM"}]}
{"molecule": "O=C(OC(C(F)(F)F)C(F)(F)F)N1CCC2(CCCN2C(=O)c2cc3ccc(C(F)(F)F)cc3s2)CC1", "note": "[Example 101, 1,1,1,3,3,3-Hexafluoropropan-2-yl 1-(6-(trifluoromethyl)benzo[b]thiophene-2-carbonyl)-1,8-diazaspiro[4.5] decane-8-carboxylate]", "values": [{"measurement": "MAGL % Inhibition at 5 mg/kg (Mouse)", "setting": "[2]", "result": "### (% inhibition is greater than or equal to 75%)"}, {"measurement": "inhibition at 1 µM", "setting": "[3]", "result": "> 75", "unit": "%"}, {"measurement": "IC50", "setting": "[3]", "result": "< 100", "unit": "nM"}]}
{"molecule": "Cc1c(CN2CCCC23CCN(C(=O)OC(C(F)(F)F)C(F)(F)F)CC3)sc2ccccc12", "note": "[Example 43, 1,1,1,3,3,3-Hexafluoropropan-2-yl 1-((3-methylbenzo[b]thiophen-2-yl)methyl)-1,8-diazaspiro[4.5] decane-8-carboxylate]", "values": [{"measurement": "MAGL % Inhibition at 5 mg/kg (Mouse)", "setting": "[2]", "result": "### (% inhibition is greater than or equal to 75%)"}, {"measurement": "IC50", "setting": "[3]", "result": "< 100", "unit": "nM"}]}
{"molecule": "CC(C)n1cc(CN2CCCC23CCN(C(=O)OC(C(F)(F)F)C(F)(F)F)CC3)c(-c2cccc(Cl)c2)n1", "note": "[Example 219, 1,1,1,3,3,3-Hexafluoropropan-2-yl 1-((3-(3-chlorophenyl)-1-isopropyl-1H-pyrazol-4-yl)methyl)-1,8-diazaspiro[4.5]decane-8-carboxylate]", "values": [{"measurement": "MAGL % Inhibition at 5 mg/kg (Mouse)", "setting": "[2]", "result": "### (% inhibition is greater than or equal to 75%)"}, {"measurement": "inhibition at 1 µM", "setting": "[3]", "result": "> 75", "unit": "%"}, {"measurement": "IC50", "setting": "[3]", "result": "< 100", "unit": "nM"}]}
{"molecule": "CC(C)c1cc(CN2CCC3(CCN(C(=O)OC(C(F)(F)F)C(F)(F)F)CC3)C2)n(-c2ccccc2Cl)n1", "note": "[Example 216, 1,1,1,3,3,3-Hexafluoropropan-2-yl 2-((1-(2-chlorophenyl)-3-isopropyl-1H-pyrazol-5-yl)methyl)-2,8-diazaspiro[4.5]decane-8-carboxylate]", "values": [{"measurement": "MAGL % Inhibition at 5 mg/kg (Mouse)", "setting": "[2]", "result": "### (% inhibition is greater than or equal to 75%)"}, {"measurement": "inhibition at 1 µM", "setting": "[3]", "result": "> 75", "unit": "%"}, {"measurement": "IC50", "setting": "[3]", "result": "< 100", "unit": "nM"}]}
